Assay results: publication PMC4582037, “Binding interaction of a novel fluorophore with serum albumins: steady state fluorescence perturbation and molecular modeling analysis” (SpringerPlus, 2015)

How the values were obtained:
[1] = molecular target: T1, bovine serum albumin (BSA) (Bos taurus, UniProt P02769); experiment: fluorescence anisotropy titration of compound […]) with protein, Langmuir isotherm fit; assay type: binding
T1 construct: gene ALB

[2] = molecular target: T2, human serum albumin (HSA) (Homo sapiens, UniProt P02768); experiment: as above; assay type: binding
T2 construct: gene ALB
T2 sequence (P02768 25-609): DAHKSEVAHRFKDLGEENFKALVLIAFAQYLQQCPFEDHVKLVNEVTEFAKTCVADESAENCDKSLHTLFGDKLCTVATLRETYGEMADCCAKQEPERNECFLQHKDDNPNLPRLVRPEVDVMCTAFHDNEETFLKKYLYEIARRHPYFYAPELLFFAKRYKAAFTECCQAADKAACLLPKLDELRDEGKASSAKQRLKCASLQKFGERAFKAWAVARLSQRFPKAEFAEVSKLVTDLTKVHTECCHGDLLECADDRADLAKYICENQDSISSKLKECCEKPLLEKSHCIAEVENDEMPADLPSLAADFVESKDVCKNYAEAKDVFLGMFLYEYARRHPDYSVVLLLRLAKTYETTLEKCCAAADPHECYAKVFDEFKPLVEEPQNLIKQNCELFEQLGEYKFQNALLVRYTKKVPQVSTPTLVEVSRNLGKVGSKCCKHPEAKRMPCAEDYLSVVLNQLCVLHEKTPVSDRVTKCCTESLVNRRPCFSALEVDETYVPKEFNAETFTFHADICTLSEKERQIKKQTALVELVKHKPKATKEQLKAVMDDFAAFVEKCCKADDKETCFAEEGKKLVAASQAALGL

T1 sequence (P02769 25-607): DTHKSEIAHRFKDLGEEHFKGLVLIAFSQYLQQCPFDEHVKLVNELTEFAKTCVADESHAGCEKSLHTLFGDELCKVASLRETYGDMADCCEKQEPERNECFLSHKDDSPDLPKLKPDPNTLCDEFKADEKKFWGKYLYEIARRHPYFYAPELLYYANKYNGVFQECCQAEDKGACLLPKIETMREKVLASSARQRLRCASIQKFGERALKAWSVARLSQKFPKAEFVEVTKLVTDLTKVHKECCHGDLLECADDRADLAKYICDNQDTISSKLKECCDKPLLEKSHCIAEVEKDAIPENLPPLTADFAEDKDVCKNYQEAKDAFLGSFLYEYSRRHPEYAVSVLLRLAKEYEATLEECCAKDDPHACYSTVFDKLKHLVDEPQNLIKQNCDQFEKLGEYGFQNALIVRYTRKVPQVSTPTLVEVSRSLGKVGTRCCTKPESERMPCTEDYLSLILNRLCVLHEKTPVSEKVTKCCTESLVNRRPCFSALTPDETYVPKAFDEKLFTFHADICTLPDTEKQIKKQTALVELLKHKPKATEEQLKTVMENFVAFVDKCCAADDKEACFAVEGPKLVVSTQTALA

COC(=O)CCNC(=O)c1ccc2cc(N(CC(=O)OC(C)(C)C)c3ccc(OC)cc3)ccc2c1 [compound 5, methyl 3-[(6-{[2-(tert-butoxy)-2-oxoethyl] (4-methoxyphenyl)amino}naphthalen-2-yl)formamido]propanoate]
Kd [1]: 1.93 µM | Kd [2]: 2.05 µM
